Here are results for four compounds from patent US9616009B2, “Composition containing at least one C7 sugar for alopecia treatment, cosmetic treatment of hair and nails, and care of hair, eyelashes or nails” (LABORATOIRES EXPANSCIENCE, priority 2009, dated 2017).

Experiment [1] has as its system IL-8. Briefly: IL-8 release (ELISA) by keratinocytes stressed with PMA. Format: cell-based, human. As to the method:
(§1) We evaluated the capacity to modulate the inflammatory response of the avocado sugars obtained according to Example 1, hereafter called AV119, in human primary keratinocytes stressed with PMA (phorbol myristic acetate).
(§2) At day 0 (D0), normal human epidermal keratinocytes (NHEK) are seeded in hydrocortisone-free KGM2 medium.
(§3) At subconfluence (at D1), the NHEK are rinsed with PBS and then pretreated with 0.005% and 0.05% avocado sugars AV119 or 0.1 μM dexamethasone (positive control) (Sigma, product D4902) in hydrocortisone-free KGM2 medium.
(§4) Twenty-four hours later, the NHEK are treated overnight with 10 μg/ml PMA (phorbol myristate acetate).
(§5) After incubation, the culture supernatants are collected and stored at −80° C. awaiting the cytokine (IL-1β, TNF-α, IL-8) ELISA (R&D Systems kits).
(§6) In parallel, the number of living cells is determined by a neutral red test.
(§7) The quantity of cytokine assayed for each condition (concentration in pg/ml, or OD450) is reduced to the number of living cells by dividing by the OD540 value obtained at the end of the neutral red test.
(§8) The results are compared statistically using a one way ANOVA followed by a Tukey's test.

For experiment [2], the system named is TNF-α. Briefly: TNF-α release (ELISA) by keratinocytes stressed with PMA. Format: cell-based, human. The method, then:
as §1, §2, §3, §4, §5, §6, §7, §8
On the technique in general: ELISA stands for enzyme-linked immunosorbent assay.

The next experiment concerns IL-1β. Briefly: IL-1β release (ELISA) by keratinocytes stressed with PMA. The class given is cell-based, human. The method, then: as §1, §2, §3, §4, §5, §6, §7, §8
For experiment [3], the system named is tumor cells of Ehrlich's ascites carcinoma. To be noted: perseitol associated with a potassium ion; Shibuya et al., Pure Appl. Chem. 1999; cited from earlier work.
Experiment [4] deals with IL-8. The experiment in a line: IL-8 gene expression (mRNA, real-time PCR) in keratinocytes stressed with LPS. Format: cell-based, human. The note with it: keratinocytes stressed with 10 μg/ml LPS 24 h: LPS alone, or pretreated with 0.1% AV119 24 h, or with 30 μM calpain. As to the method:
(§9) We evaluated the capacity to modulate the inflammatory response of the avocado sugars obtained according to Example 1, hereafter called AV119, in human primary keratinocytes stressed with LPS (lipopolysaccharide).
(§10) The cells were pretreated with 0.1% AV119 for 24 h and successively with 10 μg/ml of LPS for 24 h. In another series of experiments, the keratinocytes were pretreated with 30 μM calpain and successively with 10 μg/ml LPS for 24 h. Calpain is a specific inhibitor of the transcription factor NFκB, a key element of the inflammatory cascade. A control of keratinocytes treated only with AV119 was prepared.
(§11) Expression of mRNA for the cytokines IL-6, IL-8, IL-1α and TNF-α was analyzed by real-time PCR and protein production and release were analyzed by ELISA in the culture supernatants. Moreover, ICAM-1 expression and production were also analyzed. Finally, IκB phosphorylation was analyzed to measure the activation of transcription factor NFκB.
(§12) Total RNA was extracted with the High Pure RNA Isolation Kit (Roche Diagnostics) according to the manufacturer's recommendations. […] The melting curve was analyzed at the end of each amplification to ensure the absence of non-specific reaction products. […]
In general terms: Quantitative PCR measures a nucleic acid by following its amplification.

Experiment [5] concerns IκB phosphorylation / transcription factor NFκB. Briefly: IκB phosphorylation (Western blot) as measure of NFκB activation in keratinocytes stressed with LPS. The note with it: keratinocytes stressed with 10 μg/ml LPS; pretreated with 0.1% AV119 or 30 μM calpain. The class given is cell-based, human. As to the method: as §9, §10, §11
Proteins were extracted from the keratinocytes by cold homogenization in lysis buffer (50 mM HEPES pH 7.5, 150 mM NaCl, 1% glycerol, 1% Triton, 1.5 mM MgCl2, 5 mM EGTA) supplemented with 20 mM sodium pyrophosphate, 10 mM sodium orthovanadate and 25 mM NaF and protease inhibitors (aprotinin, phenylmethanesulfonyl fluoride (PMSF)). Protein level was quantified by the Bradford method. […]
For orientation: In western blotting, separated proteins are transferred to a membrane and probed.

Experiment [6] deals with IL-8. The experiment in a line: IL-8 protein production (ELISA) in keratinocytes stressed with LPS. To be noted: keratinocytes stressed with 10 μg/ml LPS 24 h: LPS alone, or pretreated with 0.1% AV119 24 h, or with 30 μM calpain; culture supernatant. Format: cell-based, human. The method, then:
as §9, §10, §11
(§13) A standard protocol was used for the ELISA tests (Phoenix Pharmaceuticals, Inc.).

The subject of experiment [7] is TNF-α. Briefly: TNF-α gene expression (mRNA, real-time PCR) in keratinocytes stressed with LPS. Format: cell-based, human. To be noted: keratinocytes stressed with 10 μg/ml LPS 24 h: LPS alone, or pretreated with 0.1% AV119 24 h, or with 30 μM calpain. The method, then:
as §9, §10, §11, §12

Experiment [8] concerns TNF-α. The experiment in a line: TNF-α protein production (ELISA) in keratinocytes stressed with LPS. The class given is cell-based, human. The note with it: keratinocytes stressed with 10 μg/ml LPS 24 h: LPS alone, or pretreated with 0.1% AV119 24 h, or with 30 μM calpain; culture supernatant. As to the method: as §9, §10, §11, §13
The test system of experiment [9] is IL-1α. The experiment in a line: IL-1α protein production (ELISA) in keratinocytes stressed with LPS. The class given is cell-based, human. To be noted: keratinocytes stressed with 10 μg/ml LPS 24 h: LPS alone, or pretreated with 0.1% AV119 24 h, or with 30 μM calpain; culture supernatant. The method, then:
as §9, §10, §11, §13

In experiment [10] the test system is IL-6. The experiment in a line: IL-6 protein production (ELISA) in keratinocytes stressed with LPS. The class given is cell-based, human. To be noted: keratinocytes stressed with 10 μg/ml LPS 24 h: LPS alone, or pretreated with 0.1% AV119 24 h, or with 30 μM calpain; culture supernatant. The method, then:
as §9, §10, §11, §13

For experiment [11], the system named is ICAM-1. Briefly: ICAM-1 protein production (ELISA) in keratinocytes stressed with LPS. The class given is cell-based, human. The note with it: keratinocytes stressed with 10 μg/ml LPS 24 h: LPS alone, or with 1% AV119, or with 30 μM calpain. As to the method: as §9
(§14) […] In another series of experiments, the keratinocytes were pretreated with 30 μM calpain and successively with 10 μg/ml LPS for 24 h. Calpain is a specific inhibitor of the transcription factor NFκB, a key element of the inflammatory cascade. A control of keratinocytes treated only with AV119 was prepared.
as §11, §13

Experiment [12] concerns IL-1α. The experiment in a line: IL-1α gene expression (mRNA, real-time PCR) in keratinocytes stressed with LPS. Format: cell-based, human. To be noted: keratinocytes stressed with 10 μg/ml LPS 24 h: LPS alone, or pretreated with 0.1% AV119 24 h, or with 30 μM calpain. The method, then: as §9, §10, §11, §12
Experiment [13] relates to ICAM-1. Briefly: ICAM-1 gene expression (mRNA, real-time PCR) in keratinocytes stressed with LPS. The note with it: keratinocytes stressed with 10 μg/ml LPS 24 h: LPS alone, or with 30 μM calpain. The class given is cell-based, human. As to the method:
as §9, §14, §11
Total RNA was extracted with the High Pure RNA Isolation Kit (Roche Diagnostics) according to the manufacturer's recommendations. […] The melting curve was analyzed at the end of each amplification to ensure the absence of non-specific reaction products. Quantification rests on the measure of threshold cycles (CT), which are measured at the beginning of the exponential phase of the reaction and on the normalization of the internal standard curve obtained with the reference gene beta-actin.

For experiment [14], the system named is IL-6. Briefly: IL-6 gene expression (mRNA, real-time PCR) in keratinocytes stressed with LPS. The class given is cell-based, human. To be noted: keratinocytes stressed with 10 μg/ml LPS 24 h: LPS alone, or pretreated with 0.1% AV119 24 h, or with 30 μM calpain. The method, then: as §9, §10, §11, §12
Where [15] appears, read: 0.1 μM dexamethasone, in relation to PMA.
Where [16] appears, read: NHEK pretreated 24 h with 0.1 μM dexamethasone, then 10 μg/ml PMA overnight.
Where [17] appears, read: NHEK, 10 μg/ml PMA overnight, PMA alone.
The mark [18] stands for this setting: PMA 10 μg/ml alone, increase in relation to the untreated control (without PMA).

In the case of `C[C@@H]1C[C@H]2[C@@H]3CCC4=CC(=O)C=C[C@]4(C)[C@@]3(F)[C@@H](O)C[C@]2(C)[C@@]1(O)C(=O)CO` [Dexamethasone, dexamethasone], the “IL-8 release, % in relation to the control” value in the experiment with IL-8 [1] (setting [15]) was −55%. In addition, the “IL-8 pg/ml/OD450 (mean ± SD)” value with IL-8 [1] (setting [16]) is reported as 0.790 ± 0.089 pg/ml/OD450. For the same compound, the “TNF-α release, % in relation to the control” value in the experiment on TNF-α [2] (setting [15]) was −44%. For the same compound, in the experiment with TNF-α [2] (setting [16]), the “TNF-α pg/ml/OD450 (mean ± SD)” value was found to be 0.328 ± 0.007 pg/ml/OD450. For the same compound, in the experiment with IL-1β (setting [15]), the “IL-1β release, % in relation to the control” value is −70%. In the experiment on IL-1β (setting [16]), the “IL-1β pg/ml/OD450 (mean ± SD)” value was 3.232 ± 0.329 pg/ml/OD450.
For the compound `CCCCCCCCCCCCCC(=O)O[C@@H]1[C@@H](C)[C@@]2(O)[C@@H](C=C(CO)C[C@]3(O)C(=O)C(C)=C[C@@H]23)[C@@H]2C(C)(C)[C@]12OC(C)=O` [PMA, phorbol myristate acetate], in the experiment on IL-8 [1] (setting [17]), the “IL-8 pg/ml/OD450 (mean ± SD)” value was found to be 1.765 ± 0.305 pg/ml/OD450. The “IL-8 release, % in relation to the control” value in the experiment with IL-8 [1] (setting [18]) is 1017%. In addition, the “TNF-α pg/ml/OD450 (mean ± SD)” value in the experiment with TNF-α [2] (setting [17]) was 0.584 ± 0.079 pg/ml/OD450. The “TNF-α release, % in relation to the control” value with TNF-α [2] (setting [18]) came to 1091%. In addition, the “IL-1β pg/ml/OD450 (mean ± SD)” value with IL-1β (setting [17]) was determined as 10.930 ± 0.190 pg/ml/OD450. For the same compound, the “IL-1β release, % in relation to the control” value in the experiment on IL-1β (setting [18]) came out at 1399%.
In the case of `OCC(O)C(O)C(O)C(O)C(O)CO` (stereo not drawn) [perseitol, Perseitol], the “incorporation of 3H-leucine in tumor cells” value in experiment [3] was “inhibits the incorporation of 3H-leucine”.
For lipopolysaccharide [LPS], the “IL-8 gene expression (mRNA, real-time PCR)” value in the experiment on IL-8 [4] is given as 54.1. In experiment [5], the “IκB phosphorylation (activation of transcription factor NFκB), Western blot” value is “strongly induced IκB phosphorylation”. Further, the “IL-8 protein production (ELISA)” value in the experiment with IL-8 [6] was 85. The “TNF-α gene expression (mRNA, real-time PCR)” value in the experiment on TNF-α [7] is reported as 68.0. For the same compound, the “TNF-α protein production (ELISA)” value with TNF-α [8] came out at 96.0. Moreover, in the experiment on IL-1α [9], the “IL-1α protein production (ELISA)” value is 82. The “IL-6 protein production (ELISA)” value with IL-6 [10] stood at 76. Also, in the experiment with ICAM-1 [11], the “ICAM-1 protein production (ELISA)” value is recorded as 85. The “IL-1α gene expression (mRNA, real-time PCR)” value with IL-1α [12] is on record as 71.5. Further, in the experiment on ICAM-1 [13], the “ICAM-1 gene expression (mRNA, real-time PCR)” value came to 53.2. For the same compound, the “IL-6 gene expression (mRNA, real-time PCR)” value in the experiment with IL-6 [14] is given as 54.5.
